Data reported in patent US20080221060A1, “Therapeutic Compounds” (priority 2004, published 2008).
Like-named read-outs stand apart in the source and are kept apart here.

Legend:
[1] = biological target: adenosine receptors (rat striatal membranes, [3H]-CGS21680) (Rattus norvegicus, UniProt P30543); experiment: Ki from displacement of [3H]-CGS21680 in rat striatal membranes at pH 5.5 and pH 7.4; type: binding; set-up: from tissue; host or cells: rat striatum (membranes); details: 2 nM [3H]-CGS21680, 90 minutes at 22° C.
Chain of adenosine receptors (rat striatal membranes, [3H]-CGS21680) (P30543 whole entry): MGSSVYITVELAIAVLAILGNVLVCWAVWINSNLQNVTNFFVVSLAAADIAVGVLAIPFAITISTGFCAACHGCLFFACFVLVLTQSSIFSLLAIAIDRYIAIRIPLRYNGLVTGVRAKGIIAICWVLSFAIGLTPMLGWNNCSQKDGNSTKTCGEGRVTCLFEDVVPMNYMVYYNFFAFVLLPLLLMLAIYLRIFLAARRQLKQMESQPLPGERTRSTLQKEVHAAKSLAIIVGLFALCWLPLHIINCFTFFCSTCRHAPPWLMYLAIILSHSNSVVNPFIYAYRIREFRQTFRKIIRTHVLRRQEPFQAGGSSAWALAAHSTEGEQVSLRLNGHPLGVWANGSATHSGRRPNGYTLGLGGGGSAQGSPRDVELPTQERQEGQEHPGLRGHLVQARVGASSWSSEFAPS

[2] = tested on: chronic constriction injury model of neuropathic pain; experiment: static allodynia, chronic constriction injury of the rat sciatic nerve; type: in vivo; details: rat CCI, p.o., dose response
Excerpt: The total dose administered is shown on the horizontal axis, and the paw withdrawal threshold (PWT) on the vertical axis.

[3] = pH 5.5, read-out: (Ki) nM (pH 5.5)
[4] = pH 7.4, read-out: (Ki) nM (pH 7.4)

Row | SMILES | Ki [1, 3] | Ki [1, 4] | Ki ([1]; (Ki) nM (pH 5.5), pH 5.5) | Ki ([1]; (Ki) nM (pH 7.4), pH 7.4) | inhibition of static allodynia (paw withdrawal threshold) [2]
1 | Nc1nc(OCC(F)F)nc2c1ncn2[C@@H]1O[C@H](CO)[C@@H](O)[C@H]1O [Compound 2] | 17 nM | 780 nM |  |  | 
2 | Nc1nc(OCC2CC2)nc2c1ncn2[C@@H]1O[C@H](CO)[C@@H](O)[C@H]1O [Compound 3] | 39 nM | 670 nM |  |  | 
3 | CCCCOc1nc(N)c2ncn([C@@H]3O[C@H](CO)[C@@H](O)[C@H]3O)c2n1 [Compound 4] | 11 nM | 280 nM |  |  | 
4 | CCCCCCOc1nc(N)c2ncn([C@@H]3O[C@H](CO)[C@@H](O)[C@H]3O)c2n1 [Compound 5] | 3 nM | 1500 nM |  |  | 
5 | Nc1nc(Oc2ccccc2)nc2c1ncn2[C@@H]1O[C@H](CO)[C@@H](O)[C@H]1O [Compound 6, 2-phenoxyadenosine] | 71 nM | 2500 nM |  |  | 
6 | N#Cc1ccc(Oc2nc(N)c3ncn([C@@H]4O[C@H](CO)[C@@H](O)[C@H]4O)c3n2)cc1 [Compound 7] | 4 nM | 1300 nM |  |  | 
7 | Nc1nc(Oc2cccc(-c3ccccc3)c2)nc2c1ncn2[C@@H]1O[C@H](CO)[C@@H](O)[C@H]1O [Compound 8] | 0.7 nM | 620 nM |  |  | 
8 | Nc1nc(Oc2cc(F)ccc2F)nc2c1ncn2[C@@H]1O[C@H](CO)[C@@H](O)[C@H]1O [Compound 9] | 16 nM | 2500 nM |  |  | 
9 | Nc1nc(Oc2ccc(F)cc2F)nc2c1ncn2[C@@H]1O[C@H](CO)[C@@H](O)[C@H]1O [Compound 10] | 16 nM | 6400 nM |  |  | 
10 | Nc1nc(Oc2ccc(F)c(F)c2)nc2c1ncn2[C@@H]1O[C@H](CO)[C@@H](O)[C@H]1O [Compound 11] | 63 nM | 3300 nM |  |  | 
11 | Nc1nc(Oc2cc(F)cc(F)c2F)nc2c1ncn2[C@@H]1O[C@H](CO)[C@@H](O)[C@H]1O [Compound 12] | 46 nM | 5900 nM |  |  | 
12 | Cc1cc(Oc2nc(N)c3ncn([C@@H]4O[C@H](CO)[C@@H](O)[C@H]4O)c3n2)ccc1F [Compound 13] | 43 nM | 3100 nM |  |  | 
13 | Cc1ccccc1Oc1nc(N)c2ncn([C@@H]3O[C@H](CO)[C@@H](O)[C@H]3O)c2n1 [Compound 14] |  | 22000 nM |  |  | 
14 | Nc1nc(Oc2cccc(Br)c2)nc2c1ncn2[C@@H]1O[C@H](CO)[C@@H](O)[C@H]1O [Compound 15] | 35 nM | 590 nM |  |  | 
15 | Cc1ccc(Oc2nc(N)c3ncn([C@@H]4O[C@H](CO)[C@@H](O)[C@H]4O)c3n2)cc1 [Compound 16] | 3.4 nM | 720 nM |  |  | 
16 | Nc1nc(Oc2ccc3c(c2)CCC3)nc2c1ncn2[C@@H]1O[C@H](CO)[C@@H](O)[C@H]1O [Compound 17] | 12 nM | 760 nM |  |  | 
17 | CC(C)c1cccc(Oc2nc(N)c3ncn([C@@H]4O[C@H](CO)[C@@H](O)[C@H]4O)c3n2)c1 [Compound 18] | 16 nM | 560 nM |  |  | 
18 | CNc1nc(N)c2ncn([C@@H]3O[C@H](CO)[C@@H](O)[C@H]3O)c2n1 [Compound 19] |  | 1360 nM |  |  | 
19 | CN(C)c1nc(N)c2ncn([C@@H]3O[C@H](CO)[C@@H](O)[C@H]3O)c2n1 [Compound 21] |  | 13300 nM |  |  | 

Row | SMILES | Ki [1, 3] | Ki [1, 4] | Ki ([1]; (Ki) nM (pH 5.5), pH 5.5) | Ki ([1]; (Ki) nM (pH 7.4), pH 7.4) | inhibition of static allodynia (paw withdrawal threshold) [2]
20 | CC[C@@H](C)Nc1nc(N)c2ncn(C3OC(CO)C(O)C3O)c2n1 (some centres unmarked) [Compound 22] | 33 nM | 510 nM |  |  | 
21 | CC[C@H](C)Nc1nc(N)c2ncn(C3OC(CO)C(O)C3O)c2n1 (some centres unmarked) [Compound 23] | 29 nM | 1400 nM |  |  | 
22 | CCCCCCNc1nc(N)c2ncn([C@@H]3O[C@H](CO)[C@@H](O)[C@H]3O)c2n1 [Compound 24] | 0.7 nM | 290 nM |  |  | 
23 | Nc1nc(NC2CC3CCC2C3)nc2c1ncn2[C@@H]1O[C@H](CO)[C@@H](O)[C@H]1O (some centres unmarked) [Compound 25] | 5.5 nM | 120 nM |  |  | 
24 | Nc1nc(Nc2ccccc2)nc2c1ncn2[C@@H]1O[C@H](CO)[C@@H](O)[C@H]1O [Compound 26, 2-phenylamino adenosine] | 5 nM | 160 nM |  |  | 
25 | COc1ccc(Nc2nc(N)c3ncn([C@@H]4O[C@H](CO)[C@@H](O)[C@H]4O)c3n2)cc1 [Compound 27, 2-(4-methoxyphenylamino) adenosine] | 3 nM | 55 nM |  |  | 
26 | Nc1nc(Nc2ccc(F)cc2)nc2c1ncn2[C@@H]1O[C@H](CO)[C@@H](O)[C@H]1O [Compound 28] | 10 nM | 200 nM |  |  | 
27 | Nc1nc(NC2CCCC2)nc2c1ncn2[C@@H]1O[C@H](CO)[C@@H](O)[C@H]1O [Compound 29] | 2 nM | 420 nM |  |  | 
28 | Nc1nc(NC2CCCCC2)nc2c1ncn2[C@@H]1O[C@H](CO)[C@@H](O)[C@H]1O [Compound 30, 2-cyclohexylamino adenosine] | 0.4 nM | 1000 nM |  |  | 
29 | CC(C)CCN(C)c1nc(N)c2ncn([C@@H]3O[C@H](CO)[C@@H](O)[C@H]3O)c2n1 [Compound 31] | 26 nM | 4000 nM |  |  | 
30 | Nc1nc(OCC2CCCC2)nc2c1ncn2[C@@H]1O[C@H](CO)[C@@H](O)[C@H]1O [Compound 32] | 0.2 nM | 200 nM |  |  | 
31 | CCS(=O)(=O)c1nc(N)c2ncn([C@@H]3O[C@H](CO)[C@@H](O)[C@H]3O)c2n1 [Compound 33] | 100 nM | 39000 nM |  |  | 
32 | Nc1nc(OCCO)nc2c1ncn2[C@@H]1O[C@H](CO)[C@@H](O)[C@H]1O [Compound 34, 2-(β-hydroxyethoxy)-adenosine] | 4 nM | 203 nM |  |  | 
33 | Nc1nc(OC2CC(F)(F)C2(F)F)nc2c1ncn2[C@@H]1O[C@H](CO)[C@@H](O)[C@H]1O (some centres unmarked) [Compound 35] | 11 nM | 220 nM |  |  | 
34 | N#Cc1nc(N)c2ncn([C@@H]3O[C@H](CO)[C@@H](O)[C@H]3O)c2n1 [Compound 38] | 25 nM | 175 nM |  |  | 
35 | NC(=O)c1nc(N)c2ncn([C@@H]3O[C@H](CO)[C@@H](O)[C@H]3O)c2n1 [Compound 39] | 23 nM | 610 nM |  |  | 
36 | CN(C)c1ncnc2c1ncn2[C@@H]1O[C@H](CO)[C@@H](O)[C@H]1O [Compound 41] |  |  | 42 nM | 450000 nM | 
37 | CC(C)=CCNc1ncnc2c1ncn2[C@@H]1O[C@H](CO)[C@@H](O)[C@H]1O [Compound 42] |  |  | 91.5 nM | 8600 nM | 
38 | CN(Cc1ccccc1)c1ncnc2c1ncn2[C@@H]1O[C@H](CO)[C@@H](O)[C@H]1O [Compound 43] | 7 nM | 18500 nM |  |  | 

Row | SMILES | Ki [1, 3] | Ki [1, 4] | Ki ([1]; (Ki) nM (pH 5.5), pH 5.5) | Ki ([1]; (Ki) nM (pH 7.4), pH 7.4) | inhibition of static allodynia (paw withdrawal threshold) [2]
39 | CN(Cc1cccc(Br)c1)c1ncnc2c1ncn2[C@@H]1O[C@H](CO)[C@@H](O)[C@H]1O [Compound 44] | 29 nM | 7500 nM |  |  | 
40 | CN(Cc1cccc(C(F)(F)F)c1)c1ncnc2c1ncn2[C@@H]1O[C@H](CO)[C@@H](O)[C@H]1O [Compound 45] | 3.8 nM | 20000 nM |  |  | 
41 | OC[C@H]1O[C@@H](n2cnc3c(N4CCNCC4)ncnc32)[C@H](O)[C@@H]1O [Compound 46] | 38 nM | 5000 nM |  |  | 
42 | COCCN(C)c1ncnc2c1ncn2[C@@H]1O[C@H](CO)[C@@H](O)[C@H]1O [Compound 47] | 13 nM | 13000 nM |  |  | 
43 | OC[C@H]1O[C@@H](n2cnc3c(OCC4CCCC4)ncnc32)[C@H](O)[C@@H]1O [Compound 48] | 140 nM | 21000 nM |  |  | 
44 | CC(C)NC(=O)[C@H]1O[C@@H](n2cnc3c(N)ncnc32)[C@H](O)[C@@H]1O [Compound 49] | 5 nM | 1930 nM |  |  | 
45 | NC(=O)[C@H]1O[C@@H](n2cnc3c(N)ncnc32)[C@H](O)[C@@H]1O [Compound 50] | 9 nM | 270 nM |  |  | 
46 | CNc1ncnc2c1ncn2[C@@H]1O[C@H](C(=O)NC(C)C)[C@@H](O)[C@H]1O [Compound 51] | 188 nM | 2440 nM |  |  | 
47 | CC(C)CCNc1ncnc2c1ncn2[C@@H]1O[C@H](C(=O)NC(C)C)[C@@H](O)[C@H]1O [Compound 52] | 39 nM | 1300 nM |  |  | 
48 | COc1nc(N)c2ncn([C@@H]3O[C@H](C(=O)Nc4ccccc4)[C@@H](O)[C@H]3O)c2n1 [Compound 53] | 230 nM | 26100 nM |  |  | 
49 | CCCCCCNc1nc(N)c2ncn([C@@H]3O[C@H](C(=O)NCCCC)[C@@H](O)[C@H]3O)c2n1 [Compound 54] | 0.3 nM | 540 nM |  |  | 
50 | CCCC(=O)NC[C@H]1O[C@@H](n2cnc3c(N)ncnc32)[C@H](O)[C@@H]1O [Compound 55] | 145 nM | 16900 nM |  |  | 
51 | CCNC(=O)NC[C@H]1O[C@@H](n2cnc3c(N)ncnc32)[C@H](O)[C@@H]1O [Compound 56] | 40 nM | 6570 nM |  |  | 
52 | CN(C)c1nc(NC2CCCCC2)nc2c1ncn2[C@@H]1O[C@H](CO)[C@@H](O)[C@H]1O [Compound 57] | 2.6 nM | 18000 nM |  |  | 
53 | COc1nc(NCc2ccccc2)c2ncn([C@@H]3O[C@H](CO)[C@@H](O)[C@H]3O)c2n1 [Compound 58] | 4.5 nM | 6100 nM |  |  | 
54 | Cc1nc2c(N)nc(NC3CCCCC3)nc2n1[C@@H]1O[C@H](CO)[C@@H](O)[C@H]1O [Compound 59] | 31 nM | 3900 nM |  |  | 
55 | Cc1nc2c(N)nc(NC3CCCC3)nc2n1[C@@H]1O[C@H](CO)[C@@H](O)[C@H]1O [Compound 60] | 49 nM | 2400 nM |  |  | 
56 | CCCCCCNc1nc(N)c2nc(C)n([C@@H]3O[C@H](CO)[C@@H](O)[C@H]3O)c2n1 [Compound 61] | 130 nM | 4800 nM |  |  | 
57 | NCC1(CC(=O)O)CCCCC1 [gabapentin, reference compound] |  |  |  |  | inhibit static allodynia
